The term pIC50 denotes −log10 of the IC50, conventionally taken in molar units.

The text below walks through data of US10633419B2, “Immunomodulators” (BRISTOL-MYERS SQUIBB COMPANY, priority 2014, dated 2020).

Each structure is given as a SMILES string. pIC50: −log10 of the molar value. Starred links: 1 amine or outer side, 2 acyl side, 3 side chain; linkers in the order of their positions; H or OH if unused. Positions of bridges follow the written chain, without caps; N, C: chain ends. Non-standard residues stand in square brackets, D forms with d. Residues, ends and D or L forms follow the SMILES beside them. ξ: configuration not given here. *: point of attachment. Trp(1-CH2COOH) = N[C@@H](Cc1cn(CC(=O)O)c2ccccc12)C(=O)O; X24 = O=C(C[C@@H](Cc1ccc(O)cc1)C(=O)[*:1])C[*:2]; PEG6 = NCCOCCOCCOCCOCCOCCOCCC(=O)O; Hyp = O=C(O)[C@@H]1C[C@@H](O)CN1; Myristoyl = CCCCCCCCCCCCCC(=O)*; Undecanoyl = CCCCCCCCCCC(=O)*; NMeNle = CCCC[C@H](NC)C(=O)O; NMeA = CN[C@@H](C)C(=O)O; Dab = NCC[C@H](N)C(=O)O; ξD = NC(CC(=O)O)C(=O)O; ξC = NC(CS)C(=O)O

The target in the first experiment is T1, PD-L1 (Homo sapiens, UniProt Q9NZQ7).
T1 construct: hPDL1(19-239)-TVMV-His; made in house; host or cells: HEK293T
T1 sequence (Q9NZQ7 with tags, fused parts or gaps): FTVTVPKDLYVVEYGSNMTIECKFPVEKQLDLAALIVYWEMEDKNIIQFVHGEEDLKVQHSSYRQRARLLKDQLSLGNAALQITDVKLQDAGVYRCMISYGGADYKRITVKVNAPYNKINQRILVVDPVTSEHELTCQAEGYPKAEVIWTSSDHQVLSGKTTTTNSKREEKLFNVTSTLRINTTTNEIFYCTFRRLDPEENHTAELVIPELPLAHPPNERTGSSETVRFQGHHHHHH
The experiment can be described thus: PD-1/PD-L1 Homogenous Time-Resolved Fluorescence (HTRF) binding assay (PD-1-Ig/PD-L1-His). Particulars: inhibition of PD-1-Ig binding to PD-L1-TVMV-His; value given as number; read-out: HTRF IC50. An excerpt: The ability of the macrocyclic peptides of the present disclosure to bind to PD-L1 was investigated using a PD-1/PD-L1 Homogenous Time-Resolved Fluorescence (HTRF) binding assay.
Homogenous Time-Resolved Fluorescence (HTRF) Assays of Binding of Soluble PD-1 to Soluble PD-L1. Soluble PD-1 and soluble PD-L1 refers to proteins with carboxyl-end truncations that remove the transmembrane-spanning regions and are fused to heterologous sequences, specifically the Fc portion of the human immunoglobuling G sequence (Ig) or the hexahistidine epitope tag (His). All binding studies were performed in an HTRF assay buffer consisting of dPBS supplemented with 0.1% (w/v) bovine serum albumin and 0.05% (v/v) Tween-20. For the PD-1-Ig/PD-L1-His binding assay, inhibitors were pre-incubated with PD-L1-His (10 nM final) for 15 m in 4 μl of assay buffer, followed by addition of PD-1-Ig (20 nM final) in 1 μl of assay buffer and further incubation for 15m. PD-L1 fusion proteins from either human, cynomologous macaques, mouse, or other species were used. HTRF detection was achieved using europium crypate-labeled anti-Ig monoclonal antibody (1 nM final) and allophycocyanin (APC) labeled anti-His monoclonal antibody (20 nM final). Antibodies were diluted in HTRF detection buffer and 5 μl was dispensed on top of binding reaction. The reaction was allowed to equilibrate for 30 minutes and signal (665 nm/620 nm ratio) was obtained using an EnVision fluorometer. Additional binding assays were established between PD-1-Ig/PD-L2-His (20 and 5 nM, respectively), CD80-His/PD-L1-Ig (100 and 10 nM, respectively) and CD80-His/CTLA4-Ig (10 and 5 nM, respectively). Binding/competition studies between biotinylated Compound No. 71 and human PD-L1-His were performed as follows. Macrocyclic peptide inhibitors were pre-incubated with PD-L1-His (10 nM final) for 60 minutes in 4 μl of assay buffer followed by addition of biotinylated Compound No. 71 (0.5 nM final) in 1 μl of assay buffer. Binding was allowed to equilibrate for 30 minutes followed by addition of europium crypated labeled Streptavidin (2.5 pM final) and APC-labeled anti-His (20 nM final) in 5 μl of HTRF buffer. The reaction was allowed to equilibrate for 30m and signal (665 nm/620 nm ratio) was obtained using an EnVision fluorometer.
Recombinant Proteins. Carboxyl-truncated human PD-1 (amino acids 25-167) with a C-terminal human Ig epitope tag [hPD-1 (25-167)-3S-IG] and human PD-L1 (amino acids 18-239) with a C-terminal His epitope tag [hPD-L1(19-239)-tobacco vein mottling virus protease cleavage site (TVMV)-His] were expressed in HEK293T cells and purified sequentially by recombinant Protein A affinity chromatography and size exclusion chromatography. Human PD-L2-His (Sino Biologicals), CD80-His (Sino Biologicals), CTLA4-Ig (RnD Systems) were all obtained through commercial sources.
(In general: In TR-FRET formats the signal depends on donor and acceptor labels being close together.)
For `CCCCCCCCCCC(=O)NCCCC[C@H](NC(=O)[C@H](CC(=O)O)NC(=O)CNC(=O)[C@@H]1CSCC(=O)N[C@@H](Cc2ccc(O)cc2)C(=O)N(C)[C@@H](C)C(=O)N[C@@H](CC(N)=O)C(=O)N2CCC[C@H]2C(=O)N[C@@H](Cc2cnc[nH]2)C(=O)N[C@@H](CCC(=O)O)C(=O)N2C[C@H](O)C[C@H]2C(=O)N[C@@H](Cc2c[nH]c3ccccc23)C(=O)N[C@@H](CO)C(=O)N[C@@H](Cc2c[nH]c3ccccc23)C(=O)N(C)[C@@H](CCCC)C(=O)N(C)[C@@H](CCCC)C(=O)N[C@@H](CC(C)C)C(=O)N1)C(N)=O` [Example 11009] ({CH2CO}-Y[NMeA]NPHE[Hyp]WSW[NMeNle][NMeNle]LCGDK(Undecanoyl)-NH2; thioether N-14), the negative-log IC50 (pIC50) is 7.04.

The experiment is the same for the next values; noted with them: inhibition of PD-1-Ig binding to PD-L1-TVMV-His; value given as range class; read-out: HTRF IC50.
Regarding `CCCCCCCCCCC(=O)NCCCC[C@H](NC(=O)[C@H](CC(=O)O)NC(=O)CNC(=O)[C@@H]1CSCC(=O)N[C@@H](Cc2ccc(O)cc2)C(=O)N(C)[C@@H](C)C(=O)N[C@@H](CC(=O)O)C(=O)N2CCC[C@H]2C(=O)N[C@@H](Cc2cnc[nH]2)C(=O)N[C@@H](CC(C)C)C(=O)N2C[C@H](O)C[C@H]2C(=O)N[C@@H](Cc2c[nH]c3ccccc23)C(=O)N[C@@H](CO)C(=O)N[C@@H](Cc2c[nH]c3ccccc23)C(=O)N(C)[C@@H](CCCC)C(=O)N(C)[C@@H](CCCC)C(=O)N[C@@H](CCCNC(=N)N)C(=O)N1)C(N)=O` [Example 11006] ({CH2CO}-Y[NMeA]DPHL[Hyp]WSW[NMeNle][NMeNle]RCGDK(Undecanoyl)-NH2; thioether N-14), the negative logarithm of the IC50 (pIC50) is 7.00 to 8.00.
Regarding `CCCCCCCCCCC(=O)NCCCC[C@H](NC(=O)CNC(=O)[C@@H]1CSCC(=O)N[C@@H](Cc2ccc(O)cc2)C(=O)N(C)[C@@H](C)C(=O)N[C@@H](CC(N)=O)C(=O)N2CCC[C@H]2C(=O)N[C@@H](Cc2cnc[nH]2)C(=O)N[C@@H](CCC(=O)O)C(=O)N2C[C@H](O)C[C@H]2C(=O)N[C@@H](Cc2c[nH]c3ccccc23)C(=O)N[C@@H](CCN)C(=O)N[C@@H](Cc2c[nH]c3ccccc23)C(=O)N(C)[C@@H](CCCC)C(=O)N(C)[C@@H](CCCC)C(=O)N[C@@H](CCN)C(=O)N1)C(N)=O` [Example 11007] ({CH2CO}-Y[NMeA]NPHE[Hyp]W[Dab]W[NMeNle][NMeNle][Dab]CGK(Undecanoyl)-NH2; thioether N-14), the negative logarithm of the IC50 (pIC50) is 7.00 to 8.00.
As to `CCCCCCCCCCC(=O)NCCCC[C@H](NC(=O)[C@H](CC(=O)O)NC(=O)[C@@H]1CSCC(=O)N[C@@H](Cc2ccc(O)cc2)C(=O)N(C)[C@@H](C)C(=O)N[C@@H](CC(=O)O)C(=O)N2CCC[C@H]2C(=O)N[C@@H](Cc2cnc[nH]2)C(=O)N[C@@H](CC(C)C)C(=O)N2C[C@H](O)C[C@H]2C(=O)N[C@@H](Cc2c[nH]c3ccccc23)C(=O)N[C@@H](CO)C(=O)N[C@@H](Cc2c[nH]c3ccccc23)C(=O)N(C)[C@@H](CCCC)C(=O)N(C)[C@@H](CCCC)C(=O)N[C@@H](CCCNC(=N)N)C(=O)N1)C(N)=O` [Example 11008] ({CH2CO}-Y[NMeA]DPHL[Hyp]WSW[NMeNle][NMeNle]RCDK(Undecanoyl)-NH2; thioether N-14), the pIC50 is 5.80 to 7.00.
`CCCCCCCCCCC(=O)NCCCC[C@H](NC(=O)[C@H](CCC(=O)O)NC(=O)CNC(=O)[C@@H]1CSCC(=O)N[C@@H](Cc2ccc(O)cc2)C(=O)N(C)[C@@H](C)C(=O)N[C@@H](CC(N)=O)C(=O)N2CCC[C@H]2C(=O)N[C@@H](Cc2cnc[nH]2)C(=O)N[C@@H](CCC(=O)O)C(=O)N2C[C@H](O)C[C@H]2C(=O)N[C@@H](Cc2c[nH]c3ccccc23)C(=O)N[C@@H](CO)C(=O)N[C@@H](Cc2c[nH]c3ccccc23)C(=O)N(C)[C@@H](CCCC)C(=O)N(C)[C@@H](CCCC)C(=O)N[C@@H](CC(C)C)C(=O)N1)C(N)=O` [Example 11010] ({CH2CO}-Y[NMeA]NPHE[Hyp]WSW[NMeNle][NMeNle]LCGEK(Undecanoyl)-NH2; thioether N-14): the negative-log IC50 (pIC50) was 7.00 to 8.00.
Regarding `CCCCCCCCCCC(=O)NCCCC[C@H](NC(=O)[C@H](CC(=O)O)NC(=O)[C@@H]1CSCC(=O)N[C@@H](Cc2ccc(O)cc2)C(=O)N(C)[C@@H](C)C(=O)N[C@@H](CC(N)=O)C(=O)N2CCC[C@H]2C(=O)N[C@@H](Cc2cnc[nH]2)C(=O)N[C@@H](CCC(=O)O)C(=O)N2C[C@H](O)C[C@H]2C(=O)N[C@@H](Cc2c[nH]c3ccccc23)C(=O)N[C@@H](CCN)C(=O)N[C@@H](Cc2cn(CC(=O)O)c3ccccc23)C(=O)N(C)[C@@H](CCCC)C(=O)N(C)[C@@H](CCCC)C(=O)N[C@@H](CC(C)C)C(=O)N1)C(N)=O` [Example 11011] ({CH2CO}-Y[NMeA]NPHE[Hyp]W[Dab][Trp(1-CH2COOH)][NMeNle][NMeNle]LCDK(Undecanoyl)-NH2; thioether N-14), the pIC50 is 7.00 to 8.00.
Take `CCCCCCCCCCC(=O)NCCCC[C@H](NC(=O)CCOCCOCCOCCOCCOCCOCCNC(=O)[C@@H]1CSCC(=O)C[C@@H](Cc2ccc(O)cc2)C(=O)N(C)[C@@H](C)C(=O)N[C@@H](CC(N)=O)C(=O)N2CCC[C@H]2C(=O)N[C@@H](Cc2cnc[nH]2)C(=O)N[C@@H](CCC(=O)O)C(=O)N2C[C@H](O)C[C@H]2C(=O)N[C@@H](Cc2c[nH]c3ccccc23)C(=O)N[C@@H](CCN)C(=O)N[C@@H](Cc2cn(CC(=O)O)c3ccccc23)C(=O)N(C)[C@@H](CCCC)C(=O)N(C)[C@@H](CCCC)C(=O)N[C@@H](CC(C)C)C(=O)N1)C(N)=O` [Example 11012] ([NMeA]NPHE[Hyp]W[Dab][Trp(1-CH2COOH)][NMeNle][NMeNle]LC[PEG6]K(Undecanoyl)-NH2; linker N-13 via X24): the pIC50 is 7.00 to 8.00.
With `CCCCCCCCCCCCCC(=O)NCCCC[C@H](NC(=O)C(CC(=O)O)NC(=O)CCOCCOCCOCCOCCOCCOCCNC(=O)CNC(=O)[C@@H]1CSCC(=O)C[C@@H](Cc2ccc(O)cc2)C(=O)N(C)[C@@H](C)C(=O)N[C@@H](CC(=O)O)C(=O)N2CCC[C@H]2C(=O)N[C@@H](Cc2cnc[nH]2)C(=O)N[C@@H](CC(C)C)C(=O)N2C[C@H](O)C[C@H]2C(=O)N[C@@H](Cc2c[nH]c3ccccc23)C(=O)N[C@@H](CO)C(=O)N[C@@H](Cc2c[nH]c3ccccc23)C(=O)N(C)[C@@H](CCCC)C(=O)N(C)[C@@H](CCCC)C(=O)N[C@@H](CCCNC(=N)N)C(=O)N1)C(N)=O` (stereo partly shown) [Example 11013] ([NMeA]DPHL[Hyp]WSW[NMeNle][NMeNle]RCG[PEG6][ξD]K(Myristoyl)-NH2; linker N-13 via X24), the pIC50 was 7.00 to 8.00.
The same measure, in the same setting: under `CCCCCCCCCCCCCC(=O)NCCCC[C@H](NC(=O)[C@H](CC(=O)O)NC(=O)[C@H](CC(=O)O)NC(=O)CNC(=O)[C@@H]1CSCC(=O)N[C@@H](Cc2ccc(O)cc2)C(=O)N(C)[C@@H](C)C(=O)N[C@@H](CC(=O)O)C(=O)N2CCC[C@H]2C(=O)N[C@@H](Cc2cnc[nH]2)C(=O)N[C@@H](CC(C)C)C(=O)N2C[C@H](O)C[C@H]2C(=O)N[C@@H](Cc2c[nH]c3ccccc23)C(=O)N[C@@H](CO)C(=O)N[C@@H](Cc2c[nH]c3ccccc23)C(=O)N(C)[C@@H](CCCC)C(=O)N(C)[C@@H](CCCC)C(=O)N[C@@H](CCCNC(=N)N)C(=O)N1)C(N)=O` [Example 11014] ({CH2CO}-Y[NMeA]DPHL[Hyp]WSW[NMeNle][NMeNle]RCGDDK(Myristoyl)-NH2; thioether N-14) stands 5.80 to 7.00.
As for `CCCCCCCCCCCCCC(=O)NCCCC[C@H](NC(=O)CCOCCOCCOCCOCCOCCOCCNC(=O)CNC(=O)C1CSCC(=O)N[C@@H](Cc2ccc(O)cc2)C(=O)N(C)[C@@H](C)C(=O)N[C@@H](CC(=O)O)C(=O)N2CCC[C@H]2C(=O)N[C@@H](Cc2cnc[nH]2)C(=O)N[C@@H](CC(C)C)C(=O)N2C[C@H](O)C[C@H]2C(=O)N[C@@H](Cc2c[nH]c3ccccc23)C(=O)N[C@@H](CO)C(=O)N[C@@H](Cc2c[nH]c3ccccc23)C(=O)N(C)[C@@H](CCCC)C(=O)N(C)[C@@H](CCCC)C(=O)N[C@@H](CCCNC(=N)N)C(=O)N1)C(N)=O` (stereo partly shown) [Example 11015] ({CH2CO}-Y[NMeA]DPHL[Hyp]WSW[NMeNle][NMeNle]R[ξC]G[PEG6]K(Myristoyl)-NH2; thioether N-14), the pIC50 is 7.00 to 8.00.
